# Measurements reported in patent US4761414A, “Substituted 1H-pyrimido[1,2-a-]-pyrido[3,4-e]pyrazine 6 oxides” (G. D. Searle & Co., priority 1986, dated 1988).
# Key:
# Peptococcous magnus = test: MIC vs panel of anaerobes; assay type: cell-based; details: procedures of Example 40
# [1] = system: Fusobacterium necrophorum ATCC 11295; test: MIC vs panel of anaerobes; assay type: cell-based; details: Fusobacterium necrophorum, ATCC11295, Fusobacterium necrophorum ATCC 11295; procedures of Example 40; read-out: MIC
# [2] = system: Bacteroides melanogenicus NCTC 9336; test: MIC vs panel of anaerobes; assay type: cell-based; details: NCTC9336, procedures of Example 40
# Peptostreptococcus = test: MIC vs panel of anaerobes; assay type: cell-based; details: procedures of Example 40
# [3] = system: Propionebacterium acnes NCTC 737; test: MIC vs panel of anaerobes; assay type: cell-based; details: procedures of Example 40
# [4] = system: Costridium difficile NCIB 10666; test: MIC vs panel of anaerobes; assay type: cell-based, C. difficile; details: Clostridioides difficile, NCIB10666, C. difficile NCIB 10666; procedures of Example 40; read-out: MIC
# [5] = system: B. fragilis MZ-R ATCC 11295; test: MIC/MBC against Bacteroides fragilis strain D; assay type: cell-based; details: for MBC: ATCC11295, 99.9% reduction in viable count; for MIC: ATCC11295, 48 h, 48 hours, 37° C., anaerobic
# Procedure: (§1) The screening panel utilized in this Example consisted of 5 strains of Bacteroides fragilis. All assays were carried out in 96-well microtitre plates. If an isolate was obtained from either a culture collection or clinical source, the isolate was immediately inoculated into Wilkens-Chalgren broth (Oxoid) and incubated at 37° C. in an anaerobic chamber in an atmosphere of 85% nitrogen, 10% carbon dioxide, and 5% hydrogen for 48 hours. At the end of this time, the viable count was about 10^12 organisms/ml broth. A 1 ml aliquot of each culture was placed in an ampoule and quick frozen in acetone-dry ice mixture and stored in liquid nitrogen. When an inoculum was utilized in an assay, one of the ampoules was thawed and diluted with fresh broth to yield a suspension having a count of 5×10^5 organisms/ml. A 100 μl aliquot of this suspension was inoculated into each well of the microtitre plate. A 2 mg sample of the test compound was dissolved in 0.2 ml of a suitable solvent such as dimethylsulfoxide, polyethylene glycol 200 or methanol. […] After addition of the test solution the final inoculum level was 10^5 cells/ml. The plates were incubated for 48 hours at 37° C. in the anaerobic chamber. The Minimum Inhibitory Concentration (MIC) was read visually. The MIC is defined as the lowest concentration at which there is no detectable growth. The Minimum Bactericidal Concentration (MBC) was determined by taking 50 μl aliquot from each well and placing it in fresh medium.
# [6] = system: Clostridium perfringens NCTC 8237; test: microbe, parasite or virus in culture; assay type: cell-based; details: procedures of Example 40
# B. fragilis NCTC 10581 = test: MIC/MBC against Bacteroides fragilis strain A (96-well microtitre plates, anaerobic chamber); assay type: cell-based; details: Bacteroides fragilis; for MBC: NCTC10581, 99.9% reduction in viable count; for MIC: NCTC10581, 48 h, 48 hours, 37° C., anaerobic
# Procedure: as §1, with “medium. […] The strains of Bacteroides fragilis utilized in the above procedure are identified by letter in accordance with the following legend: |A B. fragilis NCTC 10581” for “medium.”
# [7] = system: Campylobacter fetus ss. jejuni ATCC 29428; test: MIC vs panel of anaerobes; assay type: cell-based; details: ATCC29428, procedures of Example 40
# [8] = system: Campylobacter fetus ss. jejuni NCTC 10842; test: MIC vs panel of anaerobes; assay type: cell-based; details: NCTC10842, procedures of Example 40
# [9] = Clostridium perfringens, NCTC8237, Clostridium perfringens NCTC 8237
Compound,MIC (Peptococcous magnus) [µg/mL],MIC [1] [µg/mL],MIC [2] [µg/mL],MIC (Peptostreptococcus) [µg/mL],MIC [3] [µg/mL],MIC [4] [µg/mL],MBC [5] [µg/mL],MIC [5] [µg/mL],"MIC [6, 9] [µg/mL]",MBC (B. fragilis NCTC 10581) [µg/mL],MIC (B. fragilis NCTC 10581) [µg/mL],MIC [7] [µg/mL],MIC [8] [µg/mL],MIC ([6]; Clostridium perfringens NCTC 8237) [µg/mL]
"CC1(C)CN=C2C(c3ccc(Cl)cc3)=[N+]([O-])c3cccnc3N2C1 [Example 18, 2,3-Dihydro-5-(4-chlorophenyl)-2,2-dimethyl-1H-pyrimido[1,2-a]pyrido[3,2-e]pyrazine 6-oxide]",< 0.8,< 0.8,25,25,100,< 0.8,< 0.8,< 0.8,6.2,< 0.8,< 0.8,,,
"CC1(C)CN=C2C(c3ccccc3)=[N+]([O-])c3ccncc3N2C1 [Example 14, 2,3-Dihydro-2,2-dimethyl-5-phenyl-1H-pyrimido[1,2-a]pyrido[4,3-e]pyrazine 6-oxide]",100,25,100,100,> 100,1.5,3.1,3.1,25,12.5,6.2,100,50,
"CC1(C)CN=C2C(c3ccccc3)=[N+]([O-])c3cnccc3N2C1 [Example 15, 2,3-Dihydro-2,2-dimethyl-5-phenyl-1H-pyrimido[1,2-a]pyrido[3,4-e]pyrazine 6-oxide]",< 0.8,< 0.8,100,100,> 100,1.5,1.5,< 0.8,12.5,< 0.8,< 0.8,,,
"Cc1ccc(C2=[N+]([O-])c3cccnc3N3CC(C)(C)CN=C23)cc1 [Example 20, 2,3-Dihydro-2,2-dimethyl-5-(4-methylphenyl)-1H-pyrimido[1,2-a]pyrido[3,2-e]pyrazine 6-oxide]",25,1.5,50,50,> 100,< 0.8,< 0.8,< 0.8,1.5,< 0.8,< 0.8,25,6.2,
"COc1ccc(C2=[N+]([O-])c3cccnc3N3CC(C)(C)CN=C23)cc1OC [Example 22, 2,3-Dihydro-5-(3,4-dimethoxyphenyl)-2,2-dimethyl-1H-pyrimido[1,2-a]pyrido[3,2-e]pyrazine 6-oxide]",,< 0.8,> 100,100,> 100,< 0.8,< 0.8,< 0.8,6.2,1.5,1.5,50,50,
"CC1(C)CN=C2C(c3ccccc3)=[N+]([O-])c3cccnc3N2C1 [Example 16, 2,3-Dihydro-2,2-dimethyl-5-phenyl-1H-pyrimido[1,2-a]pyrido[3,2-e]pyrazine 6-oxide]",< 0.8,< 0.8,25,25,100,< 0.8,1.5,< 0.8,,3.1,3.1,,,12.5
